Reference: patent publication US11034666B2, “Anti-inflammatory and antitumor 2-oxothiazoles and 2-oxothiophenes compounds” (Avexxin AS, priority 2013, dated 2021)
Values joined by “and” are separate entries in the source; they are usually repeats but may differ in a detail not shown here. Equal values may be shown once. Read-outs that look alike come from different tables or passages of the source.

How the values were obtained:
human GIVA cPLA2 = target: T1, human GIVA cPLA2 (Homo sapiens, UniProt P47712); assay: In vitro mixed micelle assay, GIVA cPLA2; format: biochemical; settings: for inhibition of GIVA cPLA2 (in words): mixed micelle assay, comment on Table 6; for inhibition at 0.091 mole fraction: 0.091 mole fraction of inhibitor, read-out: GIVA cPLA2 % Inhib
T1 sequence (P47712 1-749): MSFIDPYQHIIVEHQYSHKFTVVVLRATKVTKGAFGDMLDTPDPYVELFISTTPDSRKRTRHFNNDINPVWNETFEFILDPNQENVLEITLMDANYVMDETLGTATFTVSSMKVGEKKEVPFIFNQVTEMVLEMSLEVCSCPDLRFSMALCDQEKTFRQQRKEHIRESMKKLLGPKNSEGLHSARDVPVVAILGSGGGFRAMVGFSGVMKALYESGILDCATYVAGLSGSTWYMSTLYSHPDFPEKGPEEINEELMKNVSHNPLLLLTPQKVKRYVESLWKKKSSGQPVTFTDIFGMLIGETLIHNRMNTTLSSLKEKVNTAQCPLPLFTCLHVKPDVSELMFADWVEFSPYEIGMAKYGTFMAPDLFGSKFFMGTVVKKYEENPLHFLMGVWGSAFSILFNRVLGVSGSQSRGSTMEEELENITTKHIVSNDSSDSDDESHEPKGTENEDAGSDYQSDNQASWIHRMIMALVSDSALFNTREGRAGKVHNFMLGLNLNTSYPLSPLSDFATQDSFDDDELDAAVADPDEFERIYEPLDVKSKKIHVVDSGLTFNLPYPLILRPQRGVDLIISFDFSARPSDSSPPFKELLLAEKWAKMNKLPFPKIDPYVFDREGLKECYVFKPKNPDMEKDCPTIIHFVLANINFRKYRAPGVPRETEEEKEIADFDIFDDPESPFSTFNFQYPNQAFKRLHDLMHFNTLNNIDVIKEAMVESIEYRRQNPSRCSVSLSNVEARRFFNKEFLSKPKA
Procedure: At first, the percent of inhibition for each PLA2 enzyme at 0.091 mole fraction of each inhibitor was determined. […] The XI(50) is the mole fraction of the inhibitor in the total substrate interface required to inhibit the enzyme activity by 50%. […] (ii) GVI iPLA2 substrate mixed-micelles were composed of 400 μM Triton X-100, 98.3 μM PAPC, and 1.7 μM ^14C-labeled PAPC in buffer containing 100 mM HEPES, pH 7.5, 2 mM ATP, and 4 mM DTT; (iii) GV sPLA2 substrate mixed-micelles were composed of 400 μM Triton X-100, 98.3 μM PAPC, and 1.7 μM ^14C-labeled PAPC in buffer containing 50 mMTris, pH 8.0, and 5 mM […] CaCl2.

[1] = test system: AA release in SW982 cells; assay: Ex vivo cellular arachidonic acid (AA) release assay, IL-1β stimulated; format: cell-based, human; settings: for IC50 / inhibition: Homo sapiens; for inhibition: % inhibition at 10 pM oxothiazole (so in the source), read-out: AA release % Inhib
Procedure: (§1) The effect of the oxothiazoles synthesized on the release of AA and OA in synoviocytes was evaluated as previously described.^54 The percent inhibition of AA and OA was determined at a 10 μM inhibitor concentration, while for the determination of the IC50 value the inhibitors were tested in a 0-20 μM range after IL-1β stimulation for 4 h.
(§2) The human synovial sarcoma cell line SW982 was from ATCC (UK) and was used as a model system to monitor AA/OA release and activation of GIVA cPLA2. SW982 cells were passaged bi-weekly by routine trypsin detachment and kept in a sub-confluent state. The cells were maintained in Dulbecco's Modified Eagle Medium (DMEM) supplemented with 10% FBS, 0.1 mg/mL gentamicin and 0.3 mg/mL L-glutamine at 37° C. with 10% CO2. For AA release, 5*10^5 cells were seeded pr well in a 48-well per plate format. Experiments were performed at 3 days post-confluency following overnight serum deprivation in serum-free DMEM to ensure differentiation and synchronization of the cells.
(§3) AA and OA release was analyzed as previously described.^54 At 2 days post-confluency, SW982 cells were serum-starved and labelled overnight with ^3H-AA (0.4 μCi/ml) and ^14C-OA (0.067 μCi/ml) in serum-free DMEM. Prior to the addition of oxothiazoles, the cells were washed twice with PBS containing fBSA (2 mg/ml) and PBS in order to remove unincorporated radioactivity. Cells were pretreated (1 h) with oxothiazoles prior to IL-1β stimulation (10 ng/mL, 4 h). Following IL-1β stimulation, the supernatants were cleared of detached cells by centrifugation (13000 rpm, 5 min). The release of ^3H-AA and ^14C-OA from the cells was assessed by liquid scintillation counting (LS 6500 Multi-Purpose Scintillation Counter, Beckman Coulter, Inc (USA). Adherent cells were dissolved in 1N NaOH in order to determine incorporated ^3H-AA and ^14C-OA in the cells by liquid scintillation counting. In all experiments, DMSO was included for vehicle control ([…]0.05%).
(§4) Following treatments, cells were routinely observed by microscopy to ensure unaltered cell morphology, integrity and viability. The results are given as inhibition of released ^3H-AA and ^14C-OA in the supernatants relative to total ^3H-AA and ^14C-OA incorporated into the cells, from at least three independent experiments performed in triplicates.

[2] = test system: OA release in SW982 cells; assay: Ex vivo cellular oleic acid (OA) release assay, IL-1β stimulated; format: cell-based; settings: Homo sapiens; SW982 synoviocytes; 4 h IL-1β stimulation; % inhibition at 10 pM oxothiazole (so in the source); read-out: OA release % Inhib
Procedure: as §1, §2, §3, §4

[3] = SW982 cells, tested 0-20 μM, Tables 2 and 4, read-out: AA release SW982 cells (0-20 μM) IC50
[4] = SW982 synoviocytes, 4 h IL-1β stimulation
[5] = SW982 synoviocytes, tested in 0-20 μM range, 4 h IL-1β stimulation, read-out: AA release IC50
[6] = mixed micelles, mole fraction of inhibitor for 50% inhibition, Table 6

| inhibition at 0.091 mole fraction (human GIVA cPLA2; mixed micelles, Table 6) | IC50 [1, 3] | IC50 [1, 5] | Compound | inhibition of GIVA cPLA2 (in words) (human GIVA cPLA2) | inhibition [1, 4] | inhibition at 10 µM [2] | inhibition of the AA release (in words) ([1]; SW982 synoviocytes) | GIVA cPLA2 XI(50) (human GIVA cPLA2; Table 2, mole fraction of inhibitor in the total substrate interface for 50% inhibition) | GIVA cPLA2 % Inhibition (human GIVA cPLA2; Tables 2 and 4) | GIVA cPLA2 XI(50) (human GIVA cPLA2; [6]) |
| --- | --- | --- | --- | --- | --- | --- | --- | --- | --- | --- |
| 40% | > 20 µM | > 20 µM | O=C(COc1ccccc1)c1nccs1 [Compound D, 2-Phenoxy-1-(thiazol-2-yl)ethanone] | did not present any interesting inhibition | 12% | 20% | – | – | – | – |
| 49% | – | – | CCCCCCCCCCCCOCC(=O)c1nc(CC(=O)OCC)cs1 [Compound X, Ethyl 2-(2-(2-(dodecyloxy)acetyl)thiazol-4-yl)acetate] | proved inactive | 0% | 0% | interesting inhibition | – | – | – |
| 58% | > 20 µM | – | O=C(COc1ccc(F)cc1)c1nccs1 [Compound C, 2-(4-Fluorophenoxy)-1-(thiazol-2-yl)ethanone] | did not present any interesting inhibition | 0% | 25% | – | – | – | – |
| 80% | ~2.5 µM | 2.8 µM | O=C(COc1ccc(-c2ccccc2)cc1)c1nccs1 [Compound B, 2-(Biphenyl-4-yloxy)-1-(thiazol-2-yl)ethanone] | did not present any interesting inhibition | 73% | 25% | interesting inhibition | – | – | – |
| 64% | – | 5 µM | CCCCCCCCc1ccc(OCC(=O)c2nc(CC(=O)OCC)cs2)cc1 [Compound Y, Ethyl 2-(2-(2-(4-octylphenoxy)acetyl)thiazol-4-yl)acetate] | dramatic loss of the activity | 71% | 20% | – | – | – | – |
| > 90% | – | 3.6 µM | CCCCCCCCc1ccc(OCC(=O)c2nccs2)cc1 [Compound T, 2-(4-Octylphenoxy)-1-(thiazol-2-yl)ethanone] | significant inhibitory activity | > 90% | 0% | interesting inhibition | – | – | 0.02 ± 0.007 mole fraction |
| 48% | – | > 20 µM | CCCCCCCCCCCCOCC(=O)c1nc(C(=O)OCC)cs1 [Compound W, Ethyl 2-(2-(dodecyloxy)acetyl)thiazole-4-carboxylate] | – | 9% | 0% | interesting inhibition | – | – | – |

| Compound | inhibition at 0.091 mole fraction (human GIVA cPLA2; mixed micelles, Table 6) | IC50 [1, 3] | IC50 [1, 5] | inhibition of GIVA cPLA2 (in words) (human GIVA cPLA2) | inhibition [1, 4] | inhibition at 10 µM [2] | inhibition of the AA release (in words) ([1]; SW982 synoviocytes) | GIVA cPLA2 XI(50) (human GIVA cPLA2; Table 2, mole fraction of inhibitor in the total substrate interface for 50% inhibition) | GIVA cPLA2 % Inhibition (human GIVA cPLA2; Tables 2 and 4) | GIVA cPLA2 XI(50) (human GIVA cPLA2; [6]) |
| --- | --- | --- | --- | --- | --- | --- | --- | --- | --- | --- |
| CCCCCCCCc1ccc(OCC(=O)c2nc(C(=O)OC)cs2)cc1 [Compound A, Methyl 2-(2-(4-octylphenoxy)acetyl)thiazole-4-carboxylate] | > 90% | ~0.6 µM | 0.6 µM | – | > 90% | 40% | – | 0.011 mole fraction | >90% | 0.011 mole fraction and 0.011 ± 0.005 mole fraction |
